“And” between values parts separate entries of the source, which are not always exact repeats. Equal entries are not always repeated.
Assay: xn = mol fraction of the nth substance listed

ClC(Cl)(Cl)Cl + C[N+](=O)[O-]
Settings | viscosity [mPa·s]
298 K, 101.3 kPa, x1 = 0.0959 | 0.636
298 K, 101.3 kPa, x1 = 0.1961 | 0.655
298 K, 101.3 kPa, x1 = 0.3609 | 0.702
298 K, 101.3 kPa, x1 = 0.5088 | 0.751
298 K, 101.3 kPa, x1 = 0.7487 | 0.805
298.15 K, 101 kPa, x2 = 0.1023 | 0.884
298.15 K, 101 kPa, x2 = 0.1662 | 0.8265
298.15 K, 101 kPa, x2 = 0.2011 | 0.8405
298.15 K, 101 kPa, x2 = 0.2958 | 0.8074
298.15 K, 101 kPa, x2 = 0.3102 | 0.7692
298.15 K, 101 kPa, x2 = 0.3946 | 0.7776
298.15 K, 101 kPa, x2 = 0.4351 | 0.7285
298.15 K, 101 kPa, x2 = 0.4978 | 0.7481
298.15 K, 101 kPa, x2 = 0.5452 | 0.6969
298.15 K, 101 kPa, x2 = 0.6013 | 0.7175
298.15 K, 101 kPa, x2 = 0.6424 | 0.6735
298.15 K, 101 kPa, x2 = 0.701 | 0.6857
298.15 K, 101 kPa, x2 = 0.7297 | 0.6556
298.15 K, 101 kPa, x2 = 0.799 | 0.6627
298.15 K, 101 kPa, x2 = 0.8077 | 0.6427
298.15 K, 101 kPa, x2 = 0.878 | 0.6339
298.15 K, 101 kPa, x2 = 0.9009 | 0.6481
298.15 K, 101 kPa, x2 = 0.9419 | 0.6295
303.15 K, 101 kPa, x2 = 0.1 | 0.7718
303.15 K, 101 kPa, x2 = 0.1023 | 0.8319
303.15 K, 101 kPa, x2 = 0.2 | 0.7427
303.15 K, 101 kPa, x2 = 0.2011 | 0.7922
303.15 K, 101 kPa, x2 = 0.2958 | 0.7599
303.15 K, 101 kPa, x2 = 0.3 | 0.7058
303.15 K, 101 kPa, x2 = 0.3946 | 0.735
303.15 K, 101 kPa, x2 = 0.4 | 0.6831
303.15 K, 101 kPa, x2 = 0.4978 | 0.7052
303.15 K, 101 kPa, x2 = 0.5 | 0.6569
303.15 K, 101 kPa, x2 = 0.6 | 0.6415
303.15 K, 101 kPa, x2 = 0.6013 | 0.6783
303.15 K, 101 kPa, x2 = 0.7 | 0.624
303.15 K, 101 kPa, x2 = 0.701 | 0.6511
303.15 K, 101 kPa, x2 = 0.799 | 0.6308
303.15 K, 101 kPa, x2 = 0.8 | 0.6126
303.15 K, 101 kPa, x2 = 0.9 | 0.6123
303.15 K, 101 kPa, x2 = 0.9009 | 0.6177
308.15 K, 101 kPa, x2 = 0.1 | 0.7423
308.15 K, 101 kPa, x2 = 0.1023 | 0.7884
308.15 K, 101 kPa, x2 = 0.2 | 0.6974
308.15 K, 101 kPa, x2 = 0.2011 | 0.7475
308.15 K, 101 kPa, x2 = 0.2958 | 0.7146
308.15 K, 101 kPa, x2 = 0.3 | 0.668
308.15 K, 101 kPa, x2 = 0.3946 | 0.6899
308.15 K, 101 kPa, x2 = 0.4 | 0.6479
308.15 K, 101 kPa, x2 = 0.4978 | 0.6672
308.15 K, 101 kPa, x2 = 0.5 | 0.626
308.15 K, 101 kPa, x2 = 0.6 | 0.6063
308.15 K, 101 kPa, x2 = 0.6013 | 0.6432
308.15 K, 101 kPa, x2 = 0.7 | 0.5927
308.15 K, 101 kPa, x2 = 0.701 | 0.6169
308.15 K, 101 kPa, x2 = 0.799 | 0.5981
308.15 K, 101 kPa, x2 = 0.8 | 0.5834
308.15 K, 101 kPa, x2 = 0.9 | 0.5735
308.15 K, 101 kPa, x2 = 0.9009 | 0.5901
313.15 K, 101 kPa, x2 = 0.1023 | 0.7324
313.15 K, 101 kPa, x2 = 0.2011 | 0.6952
313.15 K, 101 kPa, x2 = 0.2958 | 0.674
313.15 K, 101 kPa, x2 = 0.3946 | 0.648
313.15 K, 101 kPa, x2 = 0.4978 | 0.6232
313.15 K, 101 kPa, x2 = 0.6013 | 0.6053
313.15 K, 101 kPa, x2 = 0.701 | 0.5841
313.15 K, 101 kPa, x2 = 0.799 | 0.5675
313.15 K, 101 kPa, x2 = 0.9009 | 0.5621
318 K, 101.3 kPa, x1 = 0.0897 | 0.5256
318 K, 101.3 kPa, x1 = 0.1941 | 0.5442
318 K, 101.3 kPa, x1 = 0.3589 | 0.5822
318 K, 101.3 kPa, x1 = 0.5073 | 0.6189
318 K, 101.3 kPa, x1 = 0.7644 | 0.6719
318.15 K, 101 kPa, x2 = 0.1 | 0.6487
318.15 K, 101 kPa, x2 = 0.2 | 0.6201
318.15 K, 101 kPa, x2 = 0.3 | 0.5962
318.15 K, 101 kPa, x2 = 0.4 | 0.5782
318.15 K, 101 kPa, x2 = 0.5 | 0.5609
318.15 K, 101 kPa, x2 = 0.6 | 0.546
318.15 K, 101 kPa, x2 = 0.7 | 0.5328
318.15 K, 101 kPa, x2 = 0.8 | 0.5246
318.15 K, 101 kPa, x2 = 0.9 | 0.5207

CCc1ccc(O)cc1 + C[N+](C)(C)CCO.[Cl-]
298.15 K, 101.33 kPa
Settings | viscosity
x1 = 0.7 | 143.3 mPa·s
x1 = 0.8 | 84.18 mPa·s and 62.12 mPa·s and 53.08 mPa·s
x1 = 0.9 | 49.12 mPa·s

CCN(CC)CC + Cc1cc(C)cc(C)c1
viscosity [mPa·s], 101 kPa
Settings | x2 = 0.1033 | x2 = 0.2154 | x2 = 0.2645 | x2 = 0.3959 | x2 = 0.5072 | x2 = 0.6007 | x2 = 0.7132 | x2 = 0.7989 | x2 = 0.8692
293.15 K | 0.386 | 0.41 | 0.422 | 0.453 | 0.484 | 0.517 | 0.56 | 0.593 | 0.628
303.15 K | 0.35 | 0.369 | 0.378 | 0.407 | 0.432 | 0.462 | 0.497 | 0.526 | 0.557
313.15 K | 0.315 | 0.334 | 0.342 | 0.368 | 0.391 | 0.416 | 0.449 | 0.473 | 0.5
323.15 K | 0.288 | 0.304 | 0.312 | 0.335 | 0.357 | 0.378 | 0.407 | 0.429 | 0.452

CC(C)[O-].CC(C)[O-].CC(C)[O-].CC(C)[O-].[Ti+4] + Cc1ccc(C)cc1
viscosity [mPa·s], 101.3 kPa
Settings | x1 = 0.0401 | x1 = 0.0871 | x1 = 0.1382 | x1 = 0.1994 | x1 = 0.2719 | x1 = 0.3593 | x1 = 0.4654 | x1 = 0.5987 | x1 = 0.77
293.15 K | 0.671 | 0.7098 | 0.7652 | 0.8373 | 0.9143 | 1.042 | 1.235 | 1.53 | 2.053
303.15 K | 0.5881 | 0.6215 | 0.6649 | 0.7153 | 0.7695 | 0.855 | 0.9724 | 1.137 | 1.398
313.15 K | 0.5226 | 0.5494 | 0.5813 | 0.6238 | 0.6641 | 0.7258 | 0.8058 | 0.9111 | 1.063
323.15 K | 0.4655 | 0.4896 | 0.5162 | 0.5501 | 0.5849 | 0.6326 | 0.6922 | 0.7664 | 0.871

CCN(CC)CC + Cc1ccc(C)cc1
303.15 K, 101 kPa
Settings | viscosity [mPa·s]
x1 = 0.0103 | 0.5611
x1 = 0.02055 | 0.5576
x1 = 0.03043 | 0.5525
x1 = 0.04261 | 0.5488
x1 = 0.05408 | 0.5433
x1 = 0.06646 | 0.5381
x1 = 0.07602 | 0.5342
x1 = 0.08463 | 0.5307
x1 = 0.09589 | 0.5253
x1 = 0.1075 | 0.5207

ClC(Cl)(Cl)Cl + Cc1ccc(C)cc1
298.15 K, 101 kPa
Settings | viscosity [mPa·s]
x2 = 0.1 | 0.87
x2 = 0.2 | 0.8339
x2 = 0.3 | 0.7997
x2 = 0.4 | 0.7675
x2 = 0.5 | 0.7372
x2 = 0.6 | 0.7087
x2 = 0.7 | 0.6816
x2 = 0.8 | 0.6556
x2 = 0.9 | 0.6301

ClC(Cl)(Cl)Cl + Cc1cccc(C)c1
298.15 K, 101 kPa
Settings | viscosity [mPa·s]
x1 = 0.1974 | 0.609
x1 = 0.3803 | 0.665
x1 = 0.4687 | 0.716
x1 = 0.5267 | 0.751
x1 = 0.5964 | 0.792
x1 = 0.7155 | 0.851
x1 = 0.8693 | 0.894
x1 = 0.9105 | 0.902

CCN(CC)CC + Cc1ccccc1
303.15 K, 101 kPa
Settings | viscosity [mPa·s]
x1 = 0.01196 | 0.5137
x1 = 0.02231 | 0.5093
x1 = 0.03105 | 0.5049
x1 = 0.04186 | 0.4993
x1 = 0.04881 | 0.4963
x1 = 0.0617 | 0.4911
x1 = 0.0685 | 0.4859
x1 = 0.07915 | 0.4823
x1 = 0.09159 | 0.4786
x1 = 0.1002 | 0.4755

— the CheMixHub viscosity set
